Results published in patent US7666834B2, “Macrocyclic inhibitors of hepatitis C virus” (Tibotec Pharmaceuticals Ltd., priority 2005, dated 2010).
Read-outs that look alike come from different tables or passages of the source.

How the values were obtained:
[1] = rcm bond, DCE
[2] = rcm bond; 14-membered ring; Hoveyda-Grubbs II (25 mol%); DCE; 1.46 mM; 150.0 °C
HCV = settings: sustained administration; mutations D168V, D168A and/or A156S; cited from earlier work
[3] = test system: HCV replicons (NS3-NS5B regions of HCV type 1b) in Huh-7 luc/neo cells; assay: Replicon assay (Huh-Luc cells, luciferase readout); format: cell-based; settings: Hepatitis C virus, Huh-7, 72 h, three days incubation, luciferase activity
Text: It will be appreciated that it is important to distinguish between compounds that specifically interfere with HCV functions from those that exert cytotoxic or cytostatic effects in the HCV replicon model, and as a consequence cause a decrease in HCV RNA or linked reporter enzyme concentration. Assays are known in the field for the evaluation of cellular cytotoxicity based for example on the activity of mitochondrial enzymes using fluorogenic redox dyes such as resazurin. Furthermore, cellular counter screens exist for the evaluation of non-selective inhibition of linked reporter gene activity, such as firefly luciferase.
The compounds of formula (I) were examined for activity in the inhibition of HCV RNA replication in a cellular assay. […] The cellular assay was based on a bicistronic expression construct, as described by Lohmann et al. (1999) Science vol. […]
The replicon cells were plated in 384 well plates in the presence of the test and control compounds which were added in various concentrations. Following an incubation of three days, HCV replication was measured by assaying luciferase activity (using standard luciferase assay substrates and reagents and a Perkin Elmer ViewLux™ ultraHTS microplate imager). […] The inhibitory activity of the compound on luciferase activity was monitored on the Huh-Luc cells, enabling a dose-response curve for each test compound.

HCV NS3/4A protease = HCV NS3/4A protease (Hepatitis C virus genotype 1a, UniProt P27958); assay: biochemical; settings: full-length NS3 protease 1 nM, 25 μM NS4A cofactor, competitive inhibition model; read-out: Ki (nM) Enzymatic assay
Experimental: [Landro, 1997 #Biochem 36 9340-9348]. […] The solutions were stored at −20° C. between measurements.

Structure (SMILES): CCOC(=O)C12CC1C=CCCCCCN(Cc1ccc(OC)cc1)C(=O)N1CC(O[Si](C)(C)C(C)(C)C)CC1C(=O)N2 (centres unmarked)
- ring closure, isolated yield ([1]; from C=CCCCCCN(Cc1ccc(OC)cc1)C(=O)N1CC(O[Si](C)(C)C(C)(C)C)CC1C(=O)NC1(C(=O)OCC)CC1C=C, 15-membered ring, Hoveyda-Grubbs II (10 mol%), 1.6 mM): 48%

Structure (SMILES): CN1CCCCC=CC2CC2(C(=O)NS(=O)(=O)C2CC2)NC(=O)C2CC(O)CC2C1=O (centres unmarked)
- ring closure, isolated yield ([1]; 14-membered ring, Hoveyda-Grubbs II (15 mol%), 2.07 mM): 77%

Structure (SMILES): CN1CCCCC=CC2CC2(C(=O)NS(=O)(=O)C2CC2)NC(=O)C2CC(OC(=O)Nc3ccccc3N3CCCCC3)CC2C1=O (centres unmarked)
- ring closure, yield after HPLC [2]: 36%

Structure (SMILES): COc1ccc2c(O[C@@H]3C[C@H]4C(=O)N[C@]5(C(=O)O)C[C@H]5/C=C\CCCCC[C@H](NC(=O)OC5CCCC5)C(=O)N4C3)cc(-c3csc(NC(C)C)n3)nc2c1 [BILN-2061]
- selection of drug escape mutants (HCV): selects HCV mutants which are resistant to the respective drug

Structure (SMILES): CN1CCCC/C=C\[C@@H]2C[C@@]2(C(=O)NS(=O)(=O)C2CC2)NC(=O)[C@@H]2C[C@@H](OC(=O)Nc3ccccc3F)C[C@H]2C1=O [Compound 25, (2-Fluorophenyl)carbamic acid 4-cyclopropanesulfonyl-aminocarbonyl-13-methyl-2,14-dioxo-3,13-diazatricyclo[13.3.0.0^4,6]octadec-7-en-17-yl ester]
- EC50 [3]: 8.4 µM
- Ki (HCV NS3/4A protease): 51 nM

Structure (SMILES): CCOC(=O)c1ccccc1NC(=O)O[C@@H]1C[C@H]2C(=O)N[C@]3(C(=O)NS(=O)(=O)C4CC4)C[C@H]3/C=C\CCCCN(C)C(=O)[C@@H]2C1 [Compound 26, 2-(4-Cyclopropanesulfonylaminocarbonyl-13-methyl-2,14-dioxo-3,13-diaza-tricyclo-[13.3.0.0^4,6]octadec-7-en-17-yloxycarbonylamino)-benzoic acid ethyl ester]
- EC50 [3]: 0.0492 µM

Structure (SMILES): CCC[C@H](NC(=O)[C@@H]1[C@H]2CCC[C@H]2CN1C(=O)[C@@H](NC(=O)[C@@H](NC(=O)c1cnccn1)C1CCCCC1)C(C)(C)C)C(=O)C(=O)NC1CC1 [VX-950]
- selection of drug escape mutants (HCV): selects HCV mutants which are resistant to the respective drug
